# Test results published in patent US7824853B2, “Complex comprising at least two biospecific elements separated by a nucleic acid linker e.g. for identification of drug delivery candidates combinatorial library of such complexes” (Avaris AB, priority 2002, dated 2010).
# Tested on: peripheral blood mononuclear cells, population with the characteristics of monocytes
# Assay: Monocyte binding assay (FACS, binding and uptake of fluorescent complexes)
# Format: cell-based
# Conditions: monocytic population; incubated one hour at +37° C., then trypsinisation; 6-FAM labelled 48-mer oligo
# Description: Oligonucleotides (48-mers) with recognition sites for 2 different peptide-nucleic-acid sequences and with a fluorescent label were designed and manufactured. Each binding site corresponds to 15 nucleotides. The 48-mer oligos contain in the 5′ end the fluorescent label, 6-FAM, followed by three thymidine residues as spacer. There is a single central target site (GGAAGGGCCGAGCGC, Seq. Id. No. 2) surrounded by two identical adjacent target sites (CAATCGGAACGGATC, Seq. Id. No. 1).
# Peptide-nucleic-acid-linker3-peptide (=ligand) fusions were generated as described before (Brandén L J, Mohamed A J, Smith C I E. A peptide nucleic acid-nuclear localisation signal fusion that mediates nuclear transport of DNA. Nature Biotechnol 17: 784-787, 1999). […]
# Peptide-nucleic-acid-linker3-peptide (=ligand) fusions were hybridised to oligonucleotides in order to generate the novel biomolecular complexes. […] Following the incubation cells were analysed in a fluorescent activated cell sorter (FACS SCAN, Becton Dickinson, Mountain View, Calif.).
sequence,measurement,value
TAT (FE2): PNA-linker3-HIV TAT peptide (grkkrrqrrrppqc) fusion hybridised to central target site Seq. Id. No. 2 of the 48-mer oligo,Percentage of fluorescent cells,0.93%
